One series has as its system DuPro. Kind of series: MTT assay, tumor cell growth, DuPro. The series is classed as cell-based. The settings on record: 6 days incubation, read-out: ID50 (μM) values for Human Tumor Cell Lines, DuPro. The procedure: (§1) Effect of Saturated Oligoamines on Human Prostate Tumor Cell Growth by the MTT assay. Saturated oligoamines inhibited prostate cancer cell growth in vitro. DU-145 cells were most sensitive and PC-3 cells were less sensitive to the effects of oligoamines. In general, ID50 values of less than 0.5 μM were obtained (Table 2). Even though the PC-3 cells were relatively more resistant to the oligoamines, at a 5 μM concentration the oligoamines reduced the cell number to less than 1% of the control on day 6 of incubation. Tissue cultures and the MTT assay were performed as follows.
(§2) Tissue Culture. Cells were seeded into 75 cm^2 culture flasks with 15 ml of Eagle's minimal essential medium supplemented with 10% fetal calf serum and nonessential amino acids. The flasks were incubated in a humidified 95% air/5% CO2 atmosphere. The cells were grown for at least 24 h to ensure that they are in the log phase of growth and then they were treated with the oligoamines. Cells were harvested by treatment for 5 min with STV (saline A, 0.05% trypsin, 0.02% EDTA) at 37° C. The flasks were rapped on the lab bench, pipetted several times and aliquots of cell suspension were withdrawn and counted using a Coulter particle counter that has been standardized for counting each cell line using a hemacytometer.
(§3) MTT Assay: Trypsinized cell suspensions were diluted to seed 80 μl suspensions containing 500 cells in each well of a 96 well Corning microtiter plate and incubated overnight at 37° C. in a humidified incubator in 5% CO2. 20 μl of appropriately diluted stock solution of each drug were added to the middle 8 columns of cell suspension in the microtiter plates. Each drug concentration was run in quadruplicate. Outer columns of the plates were used for buffer controls. Cells were incubated with the drug for 6 days at 37° C. in 5% CO2/H2O atmosphere. 25 μl of 5 mg/ml solution of 3-(4,5-dimethylthiazol-2-yl)-2,5-diphenyl tetrazolium bromide (MTT) were added to each well and incubated for 4 hours at 37° C. in 5% CO2/H2O incubator. Cells were lysed by incubating overnight with 100 μl lysis buffer (500 ml of the lysis buffer contains: 100 g lauryl sulfate (SDS), 250 ml of N,N-dimethylformamide, and 2 ml of glacial acetic acid, made up to volume with water; pH 4.8).
(§4) The color was monitored at room temperature at 570 nm in a E-max Precision Microplate Reader (Molecular Devices Corporation, Sunnyvale, Calif.) and data was analyzed using cell survival software supplied by Molecular Devices Corporation.
In general terms: Tetrazolium dyes change colour on reduction, which living cells bring about.

Another series has as its system PC-3 Cells. Kind of series: Cellular polyamine and oligoamine levels, PC-3 cells (HPLC). In kind it is cell-based. The procedure: (§5) Cellular Uptake of Oligoamines. There was considerable uptake of oligoamines by the cancer cell lines; see Table 3A (DuPro cells) and Table 3B (PC-3 cells). […] While not wishing to be limited by any particular theory of operation, the cytotoxicity is likely related to their strong aggregation effect on DNA.
(§6) Polyamine Analysis. An appropriate number of cells were taken from harvested samples and centrifuged at 1000 rpm at 4° C. for 5 min. The cells were washed twice with chilled Dulbecco's isotonic phosphate buffer (pH 7.4) by centrifugation at 1000 rpm at 4° C. and resuspended in the same buffer. After the final centrifugation, the supernatant was decanted, and […] of 8% sulfosalycilic acid was added to the cell pellet. The cells were sonicated, and the mixture was kept at 4° C. for at least 1 h. After centrifugation at 8000 g for 5 min, the supernatant was removed for analysis. An appropriate volume (50-100 μl) was fluorescence-labeled by derivatizing with dansyl chloride. Labeled polyamines were loaded onto a C-18 high-performance liquid chromatography column and separated by gradient elution with acetonitrile/water at 50° C. Peaks were detected and quantitated using Shimadzu HPLC fluorescence monitor coupled with a Spectra-Physics peak integrator. Because polyamine levels vary with environmental conditions, control cultures were sampled for each experiment.

Another series deals with Calf-thymus DNA. Kind of series: Calf-thymus DNA aggregation (absorbance at 320 nm). In kind it is biochemical. Conditions: 50 mM NaCl, 1 mM Na-cacodylate pH 7.0. The protocol: Calf-thymus DNA aggregation by spermine and oligoamines.
Test for DNA Aggregation: DNA aggregation was studied using a Perkin-Elmer Lambda 25 UV/visible spectrophotometer connected to a PTP 6 heating unit using a previously published procedure (see Basu, H S and Marton, L J, “The interaction of spermine and pentamines with DNA,” Biochemical Journal 244:243-246 (1987)). Aggregation was determined in 50 mM NaCl, 1 mM Na-cacodylate pH 7.0 buffer by observing the increase in DNA absorbance (approximately 0.5 A260 units) at 320 nm.

Another series deals with LnCap. As to the kind of experiment: MTT assay, tumor cell growth, LnCap. The series is classed as cell-based. The settings on record: 6 days incubation, read-out: ID50 (μM) values for Human Tumor Cell Lines, LnCap. The procedure:
as §1, §2, §3, §4

A further series deals with DU145. Kind of series: MTT assay, tumor cell growth, DU145. The series is classed as cell-based. The settings on record: 6 days incubation, read-out: ID50 (μM) values for Human Tumor Cell Lines, DU145. The protocol:
as §1, §2, §3, §4

The test system of a further series is DuPro Cells. As to the kind of experiment: Cellular polyamine and oligoamine levels, DuPro cells (HPLC). The series is classed as cell-based. The protocol: as §5, §6
The subject of another series is PC-3. Kind of series: MTT assay, tumor cell growth, PC-3. The series is classed as cell-based. Conditions: 6 days incubation, read-out: ID50 (μM) values for Human Tumor Cell Lines, PC-3. The protocol: as §1, §2, §3, §4
The mark [1] stands for this setting: PC-3, Day 4 of Treatment, analog conc. 1 μM.
Setting [2] is: PC-3, Day 4 of Treatment, analog conc. 5 μM.
Setting [3] is: PC-3, Day 6 of Treatment, analog conc. 1 μM.
Setting [4] is: Day 4 of Treatment, analog conc. 0.8 μM.
Setting [5] is: Day 4 of Treatment, analog conc. 1.6 μM.
[6] abbreviates: Day 6 of Treatment, analog conc. 0.8 μM.

`CCNCCCCNCCCCNCCCCNCCCCNCCCCNCCCCNCCCCNCC.Cl.Cl.Cl.Cl.Cl.Cl.Cl.Cl` [SL-11160]: the IC50 in the series on DuPro worked out at 0.55 µM; with LnCap, 0.15 µM; in the series with DU145, 0.13 µM; in the series on PC-3, 0.4 µM. The “Polyamine levels, Analog (cellular oligoamine level)” value is recorded as 0.005 nmoles/10^6 cells in the series on PC-3 Cells (setting [1]); 0.011 nmoles/10^6 cells in the series on PC-3 Cells (setting [2]); 0.007 nmoles/10^6 cells in the series on PC-3 Cells (setting [3]); 0.575 nmoles/10^6 cells in the series with DuPro Cells (setting [4]); 0.775 nmoles/10^6 cells with DuPro Cells (setting [5]); 0.410 nmoles/10^6 cells in the series with DuPro Cells (setting [6]). Besides, the “Polyamine levels, Spd” value with PC-3 Cells (setting [1]) came to 0.097 nmoles/10^6 cells; in the series with PC-3 Cells (setting [2]), 0.077 nmoles/10^6 cells; in the series on PC-3 Cells (setting [3]), 0.085 nmoles/10^6 cells; in the series with DuPro Cells (setting [4]), 0.897 nmoles/10^6 cells; with DuPro Cells (setting [6]), 1.470 nmoles/10^6 cells. Moreover, the “Polyamine levels, Spm” value in the series with PC-3 Cells (setting [1]) is listed as 0.502 nmoles/10^6 cells; with PC-3 Cells (setting [2]), 0.525 nmoles/10^6 cells; with PC-3 Cells (setting [3]), 0.180 nmoles/10^6 cells; with DuPro Cells (setting [4]) it was 0.222 nmoles/10^6 cells; with DuPro Cells (setting [5]), 0.195 nmoles/10^6 cells; with DuPro Cells (setting [6]) it was 0.290 nmoles/10^6 cells. Further, the “Conc. (μM) at the start of DNA Aggregation” value (shortened to “Conc. (μM) at the start”) in the series with Calf-thymus DNA was 4.5 µM. Also, the “Polyamine levels, Put” value was 0.430 nmoles/10^6 cells in the series with DuPro Cells (setting [4]), 0.412 nmoles/10^6 cells in the series on DuPro Cells (setting [5]) and 0.675 nmoles/10^6 cells in the series with DuPro Cells (setting [6]).
For `NCCCNCCCCNCCCN` [Spermine, reference compound], the “Conc. (μM) at the start” value with Calf-thymus DNA stood at 88.5 µM.
Take `CCNCCCCNCCCCNCCCCNCCCCNCCCCNCCCCNCCCCNCCCCNCCCCNCCCCNCCCCNCCCCNCCCCNCC.Cl.Cl.Cl.Cl.Cl.Cl.Cl.Cl.Cl.Cl.Cl.Cl.Cl.Cl` [SL-11175]: the IC50 came out at 0.35 µM in the series on DuPro, 0.32 µM in the series on LnCap, 0.24 µM in the series on DU145 and 0.5 µM in the series with PC-3. Further, the “Polyamine levels, Analog (cellular oligoamine level)” value with PC-3 Cells (setting [1]) came to 0.055 nmoles/10^6 cells; in the series on PC-3 Cells (setting [2]), 0.128 nmoles/10^6 cells; in the series with PC-3 Cells (setting [3]), 0.08 nmoles/10^6 cells; in the series with DuPro Cells (setting [4]), 0.145 nmoles/10^6 cells; in the series with DuPro Cells (setting [5]), 0.150 nmoles/10^6 cells; in the series with DuPro Cells (setting [6]), 0.023 nmoles/10^6 cells. Further, the “Polyamine levels, Put” value in the series on PC-3 Cells (setting [1]) was found to be 0.515 nmoles/10^6 cells; in the series on PC-3 Cells (setting [2]), 0.519 nmoles/10^6 cells; with PC-3 Cells (setting [3]), 0.76 nmoles/10^6 cells; in the series with DuPro Cells (setting [4]), 0.157 nmoles/10^6 cells; in the series on DuPro Cells (setting [5]) it was 0.410 nmoles/10^6 cells; with DuPro Cells (setting [6]), 0.155 nmoles/10^6 cells. Moreover, in the series with Calf-thymus DNA, the “Conc. (μM) at the start” value was 2.0 µM. For the same compound, the “Polyamine levels, Spm” value in the series with DuPro Cells (setting [4]) stood at 0.050 nmoles/10^6 cells.
